Results from the kinase profiling compilation of Christmann-Franck et al. (2016).

Assays:
Test in all cases: KINOMEscan competition binding
Conditions in all cases: compound 0.1 µM
CDK17 (human) = CDK17 (human) (UniProt Q00537)
EPHA6 (human) = EPHA6 (human) (UniProt Q9UF33)
TNK1 (human) = TNK1 (human) (UniProt Q13470)
WNK3 (human) = WNK3 (human) (UniProt Q9BYP7)
AKT1 (human) = AKT1 (human) (UniProt P31749)
MST4 (human) = MST4 (human) (UniProt Q9P289)
PTK6 (human) = PTK6 (human) (UniProt Q13882)
[1] = test system: RET (human), P07949 [M918T]
CDK5 (human) = CDK5 (human) (UniProt Q00535)
SIK2 (human) = SIK2 (human) (UniProt Q9H0K1)
CDK2 (human) = CDK2 (human) (UniProt P24941)
ABL1 (human) = ABL1 (human) (UniProt P00519)
[2] = test system: ABL1 (human), P00519 [Y253F]
[3] = target: TYK2 JH2 pseudokinase (human) (UniProt P29597)
FLT4 (human) = FLT4 (human) (UniProt P35916)
[4] = test system: EGFR (human), P00533 [L861Q]
CASK (human) = CASK (human) (UniProt O14936)
MAPK11 (human) = MAPK11 (human) (UniProt Q15759)
CDC42BPA (human) = CDC42BPA (human) (UniProt Q5VT25)
MAP2K3 (human) = MAP2K3 (human) (UniProt P46734)
GRK1 (human) = GRK1 (human) (UniProt Q15835)
MAPK12 (human) = MAPK12 (human) (UniProt P53778)
Sequence of MAPK12 (human) (P53778 whole entry, looked up): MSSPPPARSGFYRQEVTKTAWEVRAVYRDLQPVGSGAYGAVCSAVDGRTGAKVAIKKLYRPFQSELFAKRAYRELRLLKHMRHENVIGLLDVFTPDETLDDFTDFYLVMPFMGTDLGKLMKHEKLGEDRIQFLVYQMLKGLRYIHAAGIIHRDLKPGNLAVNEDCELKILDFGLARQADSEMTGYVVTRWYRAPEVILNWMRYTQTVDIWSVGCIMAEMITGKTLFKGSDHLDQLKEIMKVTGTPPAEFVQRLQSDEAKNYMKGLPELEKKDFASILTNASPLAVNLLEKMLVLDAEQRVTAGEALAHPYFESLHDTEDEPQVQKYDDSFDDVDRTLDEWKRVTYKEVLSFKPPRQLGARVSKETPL

NEK5 (human) = NEK5 (human) (UniProt Q6P3R8)
PHKG1 (human) = PHKG1 (human) (UniProt Q16816)
[5] = test system: EGFR (human), P00533 [G719C]
BTK (human) = BTK (human) (UniProt Q06187)
Sequence of BTK (human) (Q06187 whole entry, looked up): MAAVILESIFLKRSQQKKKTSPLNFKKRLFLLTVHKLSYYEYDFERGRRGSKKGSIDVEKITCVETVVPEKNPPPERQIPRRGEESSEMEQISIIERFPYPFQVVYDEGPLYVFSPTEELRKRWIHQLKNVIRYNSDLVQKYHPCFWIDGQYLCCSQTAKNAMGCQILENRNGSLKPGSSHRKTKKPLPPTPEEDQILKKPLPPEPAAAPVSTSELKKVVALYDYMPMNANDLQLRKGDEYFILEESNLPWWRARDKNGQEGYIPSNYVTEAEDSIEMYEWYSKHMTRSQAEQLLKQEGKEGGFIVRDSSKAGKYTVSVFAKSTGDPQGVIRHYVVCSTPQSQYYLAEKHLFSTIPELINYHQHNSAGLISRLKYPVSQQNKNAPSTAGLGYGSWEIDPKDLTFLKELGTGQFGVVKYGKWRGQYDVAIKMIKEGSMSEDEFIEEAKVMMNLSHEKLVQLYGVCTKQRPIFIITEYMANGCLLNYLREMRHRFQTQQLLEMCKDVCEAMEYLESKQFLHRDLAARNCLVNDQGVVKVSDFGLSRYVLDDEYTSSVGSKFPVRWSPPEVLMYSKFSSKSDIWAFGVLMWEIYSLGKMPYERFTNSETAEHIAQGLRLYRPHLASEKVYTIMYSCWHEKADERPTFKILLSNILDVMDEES

STK32A (human) = STK32A (human) (UniProt Q8WU08)
Sequence of STK32A (human) (Q8WU08 whole entry, looked up): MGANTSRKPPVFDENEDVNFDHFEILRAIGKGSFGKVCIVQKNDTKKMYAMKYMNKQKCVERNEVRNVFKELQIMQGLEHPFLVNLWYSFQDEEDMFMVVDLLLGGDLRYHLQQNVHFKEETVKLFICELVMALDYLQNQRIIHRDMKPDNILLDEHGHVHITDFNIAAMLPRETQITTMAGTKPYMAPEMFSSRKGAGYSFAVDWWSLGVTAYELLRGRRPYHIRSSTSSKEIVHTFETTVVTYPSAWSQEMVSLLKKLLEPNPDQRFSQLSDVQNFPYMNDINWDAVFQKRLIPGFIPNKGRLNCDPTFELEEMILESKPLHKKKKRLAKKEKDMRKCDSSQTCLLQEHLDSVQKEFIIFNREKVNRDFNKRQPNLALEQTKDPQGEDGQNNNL

CLK3 (human) = CLK3 (human) (UniProt P49761)
ACVRL1 (human) = ACVRL1 (human) (UniProt P37023)
Sequence of ACVRL1 (human) (P37023 whole entry, looked up): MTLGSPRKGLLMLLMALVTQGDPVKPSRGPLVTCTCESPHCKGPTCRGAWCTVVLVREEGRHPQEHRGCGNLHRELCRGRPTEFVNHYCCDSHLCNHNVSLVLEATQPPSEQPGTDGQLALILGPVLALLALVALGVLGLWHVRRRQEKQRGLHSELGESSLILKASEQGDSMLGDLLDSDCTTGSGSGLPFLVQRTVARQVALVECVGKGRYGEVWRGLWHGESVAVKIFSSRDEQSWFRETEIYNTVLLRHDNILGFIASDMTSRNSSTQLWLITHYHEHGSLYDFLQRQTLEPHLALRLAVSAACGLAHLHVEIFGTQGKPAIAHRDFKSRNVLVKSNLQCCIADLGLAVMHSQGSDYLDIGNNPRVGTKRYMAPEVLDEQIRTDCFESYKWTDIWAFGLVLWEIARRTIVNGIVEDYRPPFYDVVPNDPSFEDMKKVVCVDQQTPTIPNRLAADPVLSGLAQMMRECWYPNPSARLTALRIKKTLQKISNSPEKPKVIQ

ULK2 (human) = ULK2 (human) (UniProt Q8IYT8)
[6] = test system: PIK3CA (human), P42336 [Q546K]
TNNI3K (human) = TNNI3K (human) (UniProt Q59H18)
RPS6KA5 KD1 (human) = RPS6KA5 KD1 (human) (UniProt O75582)
GSK3A (human) = GSK3A (human) (UniProt P49840)
PIP4K2C (human) = PIP4K2C (human) (UniProt Q8TBX8)
NTRK1 (human) = NTRK1 (human) (UniProt P04629)
NUAK2 (human) = NUAK2 (human) (UniProt Q9H093)
PRKD1 (human) = PRKD1 (human) (UniProt Q15139)
NEK7 (human) = NEK7 (human) (UniProt Q8TDX7)
IKBKB (human) = IKBKB (human) (UniProt O14920)
Sequence of IKBKB (human) (O14920 whole entry, looked up): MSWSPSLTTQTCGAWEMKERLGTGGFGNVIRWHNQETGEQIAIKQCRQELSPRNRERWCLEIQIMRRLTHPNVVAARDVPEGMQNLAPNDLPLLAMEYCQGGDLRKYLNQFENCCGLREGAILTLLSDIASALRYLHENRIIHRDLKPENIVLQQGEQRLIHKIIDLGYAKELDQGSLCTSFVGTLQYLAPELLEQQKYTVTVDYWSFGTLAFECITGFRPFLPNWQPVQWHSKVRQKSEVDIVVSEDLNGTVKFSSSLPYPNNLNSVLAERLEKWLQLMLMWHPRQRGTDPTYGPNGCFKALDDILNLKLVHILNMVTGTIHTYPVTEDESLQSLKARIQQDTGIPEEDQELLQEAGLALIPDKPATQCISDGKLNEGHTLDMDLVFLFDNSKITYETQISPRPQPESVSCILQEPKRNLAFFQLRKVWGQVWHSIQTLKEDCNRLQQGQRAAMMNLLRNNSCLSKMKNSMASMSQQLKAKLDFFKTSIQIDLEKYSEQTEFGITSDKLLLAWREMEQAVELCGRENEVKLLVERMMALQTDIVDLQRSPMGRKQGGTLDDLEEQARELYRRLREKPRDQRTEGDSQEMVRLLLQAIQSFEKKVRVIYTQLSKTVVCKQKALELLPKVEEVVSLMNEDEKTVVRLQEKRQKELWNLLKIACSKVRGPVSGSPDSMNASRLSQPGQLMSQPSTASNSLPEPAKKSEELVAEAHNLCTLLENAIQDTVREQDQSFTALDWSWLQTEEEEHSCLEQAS

Sequence of AKT1 (human) (P31749 whole entry, looked up): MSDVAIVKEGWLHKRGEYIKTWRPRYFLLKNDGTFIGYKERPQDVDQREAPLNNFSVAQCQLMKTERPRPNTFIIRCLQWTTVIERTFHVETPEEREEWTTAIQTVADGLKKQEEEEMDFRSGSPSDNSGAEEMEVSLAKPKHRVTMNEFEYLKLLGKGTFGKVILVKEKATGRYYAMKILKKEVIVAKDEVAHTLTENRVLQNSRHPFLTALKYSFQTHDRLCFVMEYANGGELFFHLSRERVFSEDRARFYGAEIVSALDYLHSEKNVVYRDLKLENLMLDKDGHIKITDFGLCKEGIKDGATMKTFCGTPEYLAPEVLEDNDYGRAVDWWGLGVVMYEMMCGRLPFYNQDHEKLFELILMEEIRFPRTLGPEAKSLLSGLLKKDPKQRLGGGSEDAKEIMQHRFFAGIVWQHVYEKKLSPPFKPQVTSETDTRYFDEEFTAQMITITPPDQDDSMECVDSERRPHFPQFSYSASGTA
Sequence of WNK3 (human) (Q9BYP7 whole entry, looked up): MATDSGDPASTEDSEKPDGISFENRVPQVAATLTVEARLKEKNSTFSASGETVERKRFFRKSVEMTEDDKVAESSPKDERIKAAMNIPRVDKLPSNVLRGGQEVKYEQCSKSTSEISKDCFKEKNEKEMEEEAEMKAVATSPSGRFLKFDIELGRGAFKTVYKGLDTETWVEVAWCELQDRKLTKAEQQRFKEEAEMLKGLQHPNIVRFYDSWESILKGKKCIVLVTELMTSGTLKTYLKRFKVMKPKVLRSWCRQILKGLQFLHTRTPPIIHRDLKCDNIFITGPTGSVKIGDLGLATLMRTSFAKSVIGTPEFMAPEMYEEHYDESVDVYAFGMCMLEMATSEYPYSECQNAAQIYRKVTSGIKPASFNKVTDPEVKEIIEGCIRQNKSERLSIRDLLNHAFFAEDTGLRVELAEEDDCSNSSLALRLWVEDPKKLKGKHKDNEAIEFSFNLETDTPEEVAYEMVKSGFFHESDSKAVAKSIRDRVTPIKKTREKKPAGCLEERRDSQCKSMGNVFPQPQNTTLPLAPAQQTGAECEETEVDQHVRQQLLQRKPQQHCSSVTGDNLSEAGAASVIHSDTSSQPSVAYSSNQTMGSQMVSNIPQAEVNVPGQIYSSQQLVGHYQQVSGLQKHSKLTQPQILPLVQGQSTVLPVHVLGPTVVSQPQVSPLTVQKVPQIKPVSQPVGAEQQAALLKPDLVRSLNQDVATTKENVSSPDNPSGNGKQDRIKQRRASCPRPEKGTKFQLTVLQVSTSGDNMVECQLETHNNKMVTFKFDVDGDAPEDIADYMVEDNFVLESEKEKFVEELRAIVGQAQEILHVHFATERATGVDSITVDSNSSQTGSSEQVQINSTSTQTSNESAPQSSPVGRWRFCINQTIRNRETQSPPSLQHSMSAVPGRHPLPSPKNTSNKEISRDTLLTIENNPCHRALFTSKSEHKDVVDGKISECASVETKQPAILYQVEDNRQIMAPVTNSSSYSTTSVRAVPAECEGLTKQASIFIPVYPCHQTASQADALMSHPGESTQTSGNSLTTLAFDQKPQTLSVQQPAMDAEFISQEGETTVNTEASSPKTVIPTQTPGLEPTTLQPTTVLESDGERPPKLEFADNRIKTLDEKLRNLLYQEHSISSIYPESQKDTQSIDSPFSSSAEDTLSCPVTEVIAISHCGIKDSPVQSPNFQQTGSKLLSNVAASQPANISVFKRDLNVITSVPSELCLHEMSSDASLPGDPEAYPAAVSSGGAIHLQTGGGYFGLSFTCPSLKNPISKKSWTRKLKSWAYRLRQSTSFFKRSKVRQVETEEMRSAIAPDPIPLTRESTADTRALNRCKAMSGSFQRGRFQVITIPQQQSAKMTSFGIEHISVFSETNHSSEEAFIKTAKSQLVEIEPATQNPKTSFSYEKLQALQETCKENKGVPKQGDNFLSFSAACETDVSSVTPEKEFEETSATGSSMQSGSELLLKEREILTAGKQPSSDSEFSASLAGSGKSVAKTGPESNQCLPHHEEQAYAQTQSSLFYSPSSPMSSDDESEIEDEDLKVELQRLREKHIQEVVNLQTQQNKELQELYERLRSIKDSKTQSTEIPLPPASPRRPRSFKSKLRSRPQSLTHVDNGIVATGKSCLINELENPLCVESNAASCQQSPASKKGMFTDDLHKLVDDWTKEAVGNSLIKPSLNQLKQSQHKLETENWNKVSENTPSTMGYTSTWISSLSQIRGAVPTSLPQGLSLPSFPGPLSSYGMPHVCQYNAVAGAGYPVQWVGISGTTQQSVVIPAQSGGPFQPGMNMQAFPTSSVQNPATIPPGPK

SMILES: CCc1ccc(C(=O)Nc2cc(CN3CCN(C)CC3)cc(C(F)(F)F)c2)cc1C#Cc1cnc2ccnn2c1
- kinase still bound, per cent of control (CDK17 (human)): 100%
- kinase still bound, per cent of control (EPHA6 (human)): 63%
- kinase still bound, per cent of control (TNK1 (human)): 52%
- kinase still bound, per cent of control (WNK3 (human)): 100%
- kinase still bound, per cent of control (AKT1 (human)): 81%
- kinase still bound, per cent of control (MST4 (human)): 100%
- kinase still bound, per cent of control (PTK6 (human)): 100%
- kinase still bound, per cent of control [1]: 46%
- kinase still bound, per cent of control (CDK5 (human)): 100%
- kinase still bound, per cent of control (SIK2 (human)): 100%
- kinase still bound, per cent of control (CDK2 (human)): 84%
- kinase still bound, per cent of control (ABL1 (human)): 100%
- kinase still bound, per cent of control [2]: 100%
- kinase still bound, per cent of control [3]: 100%
- kinase still bound, per cent of control (FLT4 (human)): 85%
- kinase still bound, per cent of control [4]: 100%
- kinase still bound, per cent of control (CASK (human)): 100%
- kinase still bound, per cent of control (MAPK11 (human)): 100%
- kinase still bound, per cent of control (CDC42BPA (human)): 84%
- kinase still bound, per cent of control (MAP2K3 (human)): 100%
- kinase still bound, per cent of control (GRK1 (human)): 100%
- kinase still bound, per cent of control (MAPK12 (human)): 72%
- kinase still bound, per cent of control (NEK5 (human)): 100%
- kinase still bound, per cent of control (PHKG1 (human)): 85%
- kinase still bound, per cent of control [5]: 100%
- kinase still bound, per cent of control (BTK (human)): 100%
- kinase still bound, per cent of control (STK32A (human)): 69%
- kinase still bound, per cent of control (CLK3 (human)): 91%
- kinase still bound, per cent of control (ACVRL1 (human)): 100%
- kinase still bound, per cent of control (ULK2 (human)): 86%
- kinase still bound, per cent of control [6]: 100%
- kinase still bound, per cent of control (TNNI3K (human)): 56%
- kinase still bound, per cent of control (RPS6KA5 KD1 (human)): 93%
- kinase still bound, per cent of control (GSK3A (human)): 100%
- kinase still bound, per cent of control (PIP4K2C (human)): 100%
- kinase still bound, per cent of control (NTRK1 (human)): 75%
- kinase still bound, per cent of control (NUAK2 (human)): 100%
- kinase still bound, per cent of control (PRKD1 (human)): 100%
- kinase still bound, per cent of control (NEK7 (human)): 95%
- kinase still bound, per cent of control (IKBKB (human)): 97%
